Results: patent US7935817B2, “Salt form and cocrystals of adefovir dipivoxil and processes for preparation thereof” (Apotex Pharmachem Inc., priority 2008, dated 2011)
≈ marks a conversion by molar mass, not a printed value. Entries after “also recorded” stand apart in the source; their conditions may differ. Like-named read-outs stand apart in the source and are kept apart here.

Tests used:
[1] = stability studies: HPLC purity after storage at 40° C./75% relative humidity; type: physicochemical
[2] = pH 7; cited from earlier work
[3] = cited from earlier work
[4] = after 1 week at 40° C./75% R.H.

In the case of CC(C)(C)C(=O)OCOP(=O)(COCCn1cnc2c(N)ncnc21)OCOC(=O)C(C)(C)C.NC(=O)c1cccnc1 [ADE:NIC, adefovir dipivoxil:nicotinamide], the “decrease of HPLC purity” value [1, 4] is reported as “no decrease; also recorded: unchanged” and the “decrease of HPLC purity” value ([1]; after 4 weeks at 40° C./75% R.H.) is reported as 0.06%.
In the case of CC(C)(C)C(=O)OCOP(=O)(COCCn1cnc2c(N)ncnc21)OCOC(=O)C(C)(C)C [Adefovir dipivoxil, 9-[2-[[bis[(pivaloyloxy)methoxy]phosphinyl]-methoxy]ethyl]adenine], the “octanol/aqueous phosphate buffer partition coefficient (log p)” value [2] is listed as 1.91, the aqueous solubility ([3]; pH 2.0) is listed as 19000 µg/mL (≈ 37.9 mM) and the aqueous solubility ([3]; pH 7.2) is listed as 400 µg/mL (≈ 0.798 mM).
In the case of CC(C)(C)C(=O)OCOP(=O)(COCCn1cnc2c(N)ncnc21)OCOC(=O)C(C)(C)C [amorphous adefovir dipivoxil, 9-[2-[[bis[(pivaloyloxy)methoxy]phosphinyl]-methoxy]ethyl]adenine], the “decrease of HPLC purity” value [1, 4] is reported as “more than 1%”, the “decrease of HPLC purity” value ([1]; after 2 weeks at 40° C./75% R.H.) is reported as 2% and the “decrease of HPLC purity per week” value ([1]; storage at 40° C./75% relative humidity, over 2 weeks) is reported as 1 % per week.
